Patent US10493169B2, “Use of charge-balanced imaging agents for determining renal function” (Beth Israel Deaconess Medical Center, priority 2009, dated 2019)
Like-named read-outs stand apart in the source and are kept apart here.

Assays:
[1] = Stability of dyes in 100% calf serum at 37° C.; assay type: in vitro ADME; conditions: 100% calf serum supplemented with 50 mM HEPES, pH 7.4
Description: (§1) Table 2 below summarizes the optical and stability properties of each of these dyes in 100% calf serum (supplemented with 50 mM HEPES, pH 7.4).

[2] = In vivo biodistribution and clearance of dyes in rats (FLARE NIR fluorescence imaging); conditions: IV 40 pmol/g (10 nmol)
Description: The dyes were injected IV into rats at a dose of 40 pmol/g (10 nmol). […] Excitation fluence rate was 5 mW/cm2. Camera integration time was 200 msec. All NIR fluorescence images have identical normalizations. B 1=bladder. Li=Liver. In=Intestines.

[3] = In vivo biodistribution and clearance of dyes in pigs (FLARE NIR fluorescence imaging); conditions: for Blood half-lives: IV 40 pmol/g, given in the pig paragraph, species not restated; for uptake in liver and intestines: pigs, IV 40 pmol/g (1.6 μmol)
Description: (§2) For in vivo characterization, 40 pmol/g (average 10 nmol) of each dye or conjugate can be injected IV into 250 g Sprague-Dawley rats whose major viscera are surgically exposed. The FLARE™ imaging system can be set to a 760 nm excitation fluence rate of 5 mW/cm2. Simultaneous color video and NIR fluorescence (800 nm) images can be acquired pre-injection, every 1 sec for the first 20 sec then every 1 min for 2 h. Camera acquisition can be held constant (typically 100 msec) and chosen to ensure that all intensity measurements are within the linear range of the 12-bit Orca-AG (Hamamatsu) NIR camera. Blood can be sampled at 0, 1, 2, 5, 10, 15, 30, 60, and 120 min via tail vein. Intensity-time curves for all major organs and tissues can be quantified. The peak fluorescence intensity and time can be determined for each tissue/organ, along with the intensity in each at 1 h post-injection. The experiment can then be repeated in pigs, with measurement of NIR fluorescent intensity of skin and all internal tissues and organs.
(§3) All dyes were injected IV into pigs at a dose of 40 pmol/g (1.6 μmol). […] Excitation fluence rate was 5 mW/cm2. Camera integration time was 200 msec. All NIR fluorescence images had identical normalizations.

[4] = Optical properties of NIR fluorophores in 100% calf serum; assay type: physicochemical; conditions: 100% calf serum supplemented with 50 mM HEPES, pH 7.4
Text: After purification to homogeneity, optical properties of the dyes can be measured in 100% calf serum. Absorbance spectrometry (200 to 870 nm) can be performed using a USB2000 fiber optic spectrometer and CHEM2000-UV-VIS light source with cuvette holder (Ocean Optics, Dunedin, Fla.). Fluorescence spectrometry (200 to 1100 nm) can be performed using a HR2000 fiber optic spectrometer, CUV-ALL-UV 4-way cuvette holder (Ocean Optics), and a 250 mW 770 nm laser diode (Electro Optical Components, Santa Rosa, Calif.). Quantum yield can be measured under conditions of matched absorbance and 770 nm laser excitation, using ICG in DMSO (QY=13%) as the calibration standard.
as §1

[5] = in DMSO; cited from earlier work
[6] = Renal clearance: recovery of dye in urine samples; assay type: in vivo; conditions: human, healthy individuals, urine over 12 h, read-out: recovery of the pre-determined dose in urine
Description: Dye MM-19 with net charge of 0 was administered to three groups of subjects of healthy individuals. One group was administered a pre-determined dose of 0.5 mg; one group was administered a pre-determined dose of 2.5 mg; and one group was administered a pre-determined dose of 5.0 mg. Clearance of the dye was measured by quantitative analysis of urine samples obtained by catheterization every hour for the first four hours followed by samples obtained every two hours for the next 8 hours.

[7] = in vivo; conditions: pig, iv
Description: as §2, §3

Stability at 4 h, 37° C. [1] [%]	clearance / excretion route [2]	intestinal signal [2]	Blood half-lives [3] [min]	Extinction Coefficient [4]	Peak Absorbance [4] [nm]	Peak Emission [4] [nm]	QY [4] [%]	liver uptake [2]	dose excreted ([6]; dose not named in the sentence (groups 0.5, 2.5, 5.0 mg)) [%]	dose excreted ([6]; predetermined dose of 0.5 mg) [%]	dose excreted ([6]; predetermined dose of 2.5 mg) [%]	half-life [7] [min]	SMILES	non-specific uptake / background retention in tissues and organs [2]	uptake in liver and intestines [3]	QY (calibration standard) [5] [%]	equilibration between intravascular and extravascular spaces [2]
95	cleared equally by liver and kidneys	high intestinal signal	30.6	237,000 M^−1cm^−1	786	801	14.2						CC1(C)C(/C=C/C2=C(Oc3ccc(S(=O)(=O)O)cc3)C(=C/C=C3/N(CCCCS(=O)(=O)O)c4ccc(S(=O)(=O)[O-])cc4C3(C)C)/CCC2)=[N+](CCCCCC(=O)O)c2ccc(S(=O)(=O)O)cc21 [CW-800]	relatively high retention in skin and other major tissues and organs	very high uptake in pig liver and intestines		
96	eventual excretion into bile		4.6	121,000 M^−1cm^−1	807	822	9.3	rapid uptake by the liver					CC1(C)C(/C=C/C=C/C=C/C=C2\N(CCCCS(=O)(=O)[O-])c3ccc4ccccc4c3C2(C)C)=[N+](CCCCS(=O)(=O)[O-])c2ccc3ccccc3c21.[Na+] [ICG]		very high uptake in pig liver and intestines	13	
95	rapid renal excretion into urine			249,000 M^−1cm^−1	773	790	13.7	no measurable liver uptake	> 50	> 80	> 60	13.4	CC1(C)C(/C=C/C2=C(Oc3ccc(CCC(=O)[O-])cc3)C(=C/C=C3/N(CCC[N+](C)(C)C)c4ccc(S(=O)(=O)[O-])cc4C3(C)C)/CCC2)=[N+](CCC[N+](C)(C)C)c2ccc(S(=O)(=O)[O-])cc21 [MM-19]	extremely low background retention in normal tissues and organs			rapid equilibration between intravascular and extravascular spaces
